{"source": "paper PMC11731258", "about": "“The structural basis for high-affinity c-di-GMP binding to the GSPII-B domain of the traffic ATPase PilF from Thermus thermophilus” (The Journal of Biological Chemistry, 2024)", "target": "T1, PilF159-302 (GSPII-B domain) (Thermus thermophilus, UniProt Q5SLC9)", "T1 sequence (Q5SLC9 159-302)": "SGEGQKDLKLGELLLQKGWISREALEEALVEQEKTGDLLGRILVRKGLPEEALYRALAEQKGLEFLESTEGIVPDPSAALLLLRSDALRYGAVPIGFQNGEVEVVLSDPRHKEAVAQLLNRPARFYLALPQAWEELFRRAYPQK", "assay": "ITC binding to PilF159-302", "description": "To assess the ligand-binding capabilities of the various PilF constructs, triplicates of ITC measurements were recorded for each construct. The measurements were carried out using a MicroCal ITC200 (Malvern Panalytical). […] All protein samples were extensively dialyzed against the sample buffer and the buffer used for dialysis was used to dilute protein and c-di-GMP samples in preparation for the ITC measurements. Each measurement was conducted using the following protocol. In total, 39.8 μl c-di-GMP were titrated to 270 μl protein in 20 separate injections in 180 s intervals with a stirring speed of 750 rpm. After an initial delay of 120 s, the first injection of 0.2 μl c-di-GMP with a duration of 0.4 s was followed by 19 injections of 2 μl with a duration of 4 s. During the measurement, the feedback mode was set to high and the reference power to 11 μcal s^−1. To optimize precision of the measurements, protein and c-di-GMP concentrations were adjusted to the binding capabilities of the respective constructs and ranged from 5 to 200 μM for protein and 50 to 2000 μM for c-di-GMP. All thermograms were processed using Origin 7.0 (OriginLab) using a one-site– or two-site–binding model dependent on the number of expected binding events."}
{"smiles": "O=c1[nH]cnc2c1ncn2[C@@H]1O[C@@H]2COP(=O)(O)O[C@H]3[C@@H](O)[C@H](n4cnc5c(=O)[nH]cnc54)O[C@@H]3COP(=O)(O)O[C@H]2[C@H]1O", "note": "[c-di-IMP, cyclic dimeric inosine-monophosphate]", "values": [{"measurement": "Kd", "value": "60 ± 1", "unit": "nM"}, {"measurement": "N", "setting": "ITC, 20 °C", "value": "0.74 ± 0.03"}, {"measurement": "ΔH", "setting": "ITC, 20 °C", "value": "-7.103 ± 0.234", "unit": "kcal/mol"}, {"measurement": "ΔS", "setting": "ITC, 20 °C", "value": "8.8 ± 0.8", "unit": "cal/mol/deg"}]}
